Patent US11279733B2, “Peptide antibiotics” (priority 2017, dated 2022)
Values after ≈ are worked out from the molar mass of the structure shown. Positions of bridges follow the written chain, without caps; N, C: chain ends. Non-standard residues stand in square brackets, D forms with d. Residues, ends and D or L forms follow the SMILES beside them. *: point of attachment. Decanoyl(3R-OH) = CCCCCCC[C@@H](O)CC(=O)*; Phe(4-NH2) = Nc1ccc(C[C@H](N)C(=O)O)cc1; dDab = NCC[C@@H](N)C(=O)O; Dab = NCC[C@H](N)C(=O)O

Key:
in vitro [1] = conditions: human
Method in brief: (§1)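 Viability is measured by resazurin reduction (5 μM, 2 h, 37 °C) after cells seeded at 4000 per well are treated with compound for 24 h.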

[2] = system: P. aeruginosa GN_105, PmxR; conditions: GN 105, PmxR
Method in brief: (§2)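 Mid-log cultures grown in Mueller Hinton broth at 37° C were tested by 2-fold broth microdilution at 5×10^5 CFU/mL final. Compounds were dissolved in water and tested over a final range of 32 to 0.015 μg/mL.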

[3] = system: K. pneumoniae GN_106, PmxR; conditions: GN 106, PmxR
Method in brief: as §2

[4] = system: S. aureus ATCC 25923, MSSA; conditions: ATCC 25923
Method in brief: as §2

[5] = system: K. pneumoniae ATCC BAA-2146, NDM-1 pos; conditions: ATCC BAA-2146
Method in brief: as §2

A. baumannii ATCC 19606 = conditions: ATCC 19606
Method in brief: as §2

A. baumannii GN_093 PmxR = conditions: GN 093 PmxR
Method in brief: as §2

E. coli ATCC 25922 = conditions: ATCC 25922
Method in brief: as §2

[6] = system: K. pneumoniae GN_102 PmxR; conditions: GN 102 PmxR
Method in brief: as §2

K. pneumoniae ATCC 13883 = conditions: ATCC 13883
Method in brief: as §2

[7] = system: P. aeruginosa GN_043, PmxR
Method in brief: as §2

P. aeruginosa ATCC 27853 = conditions: ATCC 27853
Method in brief: as §2

[8] = system: K. pneumoniae ATCC 700603, MDR; conditions: ATCC 700603
Method in brief: as §2

in vitro [9] = conditions: human; remark: listed apart in the source
Method in brief: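 HK2 cells were seeded at 2000 per well in DMEM/F12 with 10% FBS and left to attach for 24 h at 37 °C, 5% CO2. They were then exposed for 24 h to 3-fold peptide dilutions starting from 600 μM solutions in quadruplicate. LDH release was read at 450 nm, and CC50 was fitted from dose-response curves.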

in vitro [10] = conditions: human; remark: listed apart in the source
Method in brief: as §1

| Compound | CC50 at 24 h (in vitro [1]) | MIC P. aeruginosa GN_105, PmxR [2] | MIC K. pneumoniae GN_106, PmxR [3] | MIC S. aureus ATCC 25923, MSSA [4] | MIC K. pneumoniae ATCC BAA-2146, NDM-1 pos [5] | MIC A. baumannii ATCC 19606 (A. baumannii ATCC 19606) | MIC A. baumannii GN_093 PmxR (A. baumannii GN_093 PmxR) | MIC E. coli ATCC 25922 (E. coli ATCC 25922) | MIC K. pneumoniae GN_102 PmxR [6] | MIC K. pneumoniae ATCC 13883 (K. pneumoniae ATCC 13883) | MIC P. aeruginosa GN_043, PmxR [7] | MIC P. aeruginosa ATCC 27853 (P. aeruginosa ATCC 27853) | MIC K. pneumoniae ATCC 700603, MDR [8] | CC50 at 24 h (in vitro [9]) | CC50 at 24 h (in vitro [10]) | other results |
| --- | --- | --- | --- | --- | --- | --- | --- | --- | --- | --- | --- | --- | --- | --- | --- | --- |
| CCCCCCC[C@@H](O)CC(=O)N[C@@H](CCN)C(=O)N[C@@H]1CCNC(=O)[C@H](CC(C)C)NC(=O)[C@H](CCN)NC(=O)[C@H](CCN)NC(=O)[C@H](CC(C)C)NC(=O)[C@@H](Cc2ccccc2)NC(=O)[C@H](CCN)NC1=O [compound 6658, 3(R)OH-nC9CO-L-Dab-cyc[D-Dab-L-Dab-D-Phe-L-Leu-L-Dab-L-Dab-L-Leu]] ({Decanoyl(3R-OH)}-[Dab][dDab][Dab][dF]L[Dab][Dab]L; lactam 2-C) | > 300 µM | >32 µg/mL | >32 µg/mL | >32 µg/mL | >32 µg/mL | >32 µg/mL | >32 µg/mL | >32 µg/mL | >32 µg/mL | >32 µg/mL | >32 µg/mL | 32 µg/mL (≈ 30.6 µM) | >32 µg/mL | > 300 µM | > 300 µM | – |
| CCCCCCC[C@@H](O)CC(=O)N[C@@H](CCN)C(=O)N[C@@H]1CCNC(=O)[C@H](CC(C)C)NC(=O)[C@H](CCN)NC(=O)[C@H](CCN)NC(=O)[C@H](C)NC(=O)[C@@H](Cc2ccccc2)NC(=O)[C@H](CCN)NC1=O [compound 6660, 3(R)OH-nC9CO-L-Dab-cyc[D-Dab-L-Dab-D-Phe-L-Ala-L-Dab-L-Dab-L-Leu]] ({Decanoyl(3R-OH)}-[Dab][dDab][Dab][dF]A[Dab][Dab]L; lactam 2-C) | > 300 µM | >32 µg/mL | >32 µg/mL | >32 µg/mL | >32 µg/mL | >32 µg/mL | >32 µg/mL | >32 µg/mL | >32 µg/mL | >32 µg/mL | >32 µg/mL | >32 µg/mL | >32 µg/mL | > 300 µM | > 300 µM | – |
| CCCCCCC[C@@H](O)CC(=O)N[C@H](CCN)C(=O)N[C@H]1CCNC(=O)[C@H](CC(C)C)NC(=O)[C@H](CCN)NC(=O)[C@H](CCN)NC(=O)[C@H](CC(C)C)NC(=O)[C@@H](Cc2ccccc2)NC(=O)[C@H](Cc2ccc(N)cc2)NC1=O [compound 8635, 3(R)OH-nC9CO-D-Dab-cyc[L-Dab-L-4NH2Phe-D-Phe-L-Leu-L-Dab-L-Dab-L-Leu]] ({Decanoyl(3R-OH)}-[dDab][Dab][Phe(4-NH2)][dF]L[Dab][Dab]L; lactam 2-C) | > 300 µM | – | – | – | – | – | – | – | – | – | – | – | – | 219 µM | > 300 µM | MIC, P. aeruginosa PA9704, PmxR [2]: >32 µg/mL; MIC, K. pneumoniae Cl 138-16347-20362, PmxR [3]: >32 µg/mL; MIC, S. Aureus ATCC 25923, MSSA [4]: 32 µg/mL (≈ 28.9 µM); MIC, K. pneumoniae ATCC BAA-2146, NDM-1 pos [5]: 16 µg/mL (≈ 14.5 µM); MIC, A. baumannii ATCC 19606 (A. baumannii ATCC 19606): >32 µg/mL; MIC, A. baumannii Cl Ptyela 10073 4512:2, PmxR (A. baumannii GN_093 PmxR): >32 µg/mL; MIC, E. coli ATCC 25922 (E. coli ATCC 25922): 16 µg/mL (≈ 14.5 µM); MIC, K. pneumoniae Cl Koprana 10065 0661:1, PmxR [6]: >32 µg/mL; MIC, K. pneumoniae ATCC 13883 (K. pneumoniae ATCC 13883): >32 µg/mL; MIC, P. aeruginosa FADDI-PA070, PmxR ([7]; Table 5, polymyxin-resistant): 16 µg/mL (≈ 14.5 µM); MIC, P. aeruginosa ATCC 27853 (P. aeruginosa ATCC 27853): 16 µg/mL (≈ 14.5 µM); MIC, K. pneumoniae ATCC 700603, MDR [8]: 32 µg/mL (≈ 28.9 µM) |
